Test in all cases: isoTOP-ABPP mapping of AEA-DA-modified peptides in Neuro2a cells
Holding throughout (assay type): cell-based

The target in assay [1] is T1, AEA-DA-modified peptides in Neuro2a cells (Mus musculus, UniProt P62259).
T1 construct: endogenous in cells; host or cells: Neuro2a
The settings on record: AEA-DA-modified peptide YWHAE P62259 197-226, SEQ ID NO 121; probe 100 μM, 12 replicates. Here is the method:
(§1) Experiments were performed as described above using the AEA-DA probe (100 μM) in 3.0 mL of DMEM (serum-free) and Neuro2A cells without (twelve replicates; ten biological; two technical). For the ligand competition study, cells were treated with the AEA-DA probe (50 μM) and DMSO or MJN228 (50 μM) treatment. Cells were harvested and processed as described above. Whole cell lysates (500 μL at 1.5 mg/mL) were processed for MS analysis using the previously described isoTOPABPP protocol (Speers and Cravatt, 2005). In brief, for global mapping of AEA-DA-modified peptides, proteomes were split into two fractions, which were subjected to click chemistry conditions with either light or heavy isotopically labeled TEV-tags. For the […] competition study, proteomes were subjected to click chemistry conditions with either light (DMSO) or heavy (MJN228-treated) TEV-tags. Light and heavy-tagged proteomes in each experiment were then combined, and, following enrichment of probe-labeled targets using streptavidin beads, proteins were digested on-bead with trypsin and remaining immobilized peptides released with a subsequent TEV protease digestion. The resulting probe-modified peptides were collected for MS analysis, which was performed as described above with differences in the salt bumps applied in the chromatographic gradients which were 0%, 30%, 60%, 90% and 100% NH4OAc (500 mM). The protein identification searches of the MS data were performed using the same software packages described above with the following changes applied to identify the peptides modified with AEA-DA and the cleaved TEV tag. All amino acids were considered as possible residues for modification. To facilitate the computational searches, sets of up to 3 amino acids were searched using ProLuCID and filtered with DTASelect as described above. The mass of the modification used to search for probe-modified peptides was +727.4745 m/z for the probe plus the light TEV-tag and +733.4831 m/z for the heavy counterpart. […] For global mapping experiments, AEA-DA-modified peptides were expected to show a ratio of “heavy” and “light” signals of ˜1.0 (0.5<ratio<2.0) and were required to have been detected in at least two of the twelve replicate experiments.
(§2) In some embodiments, the ligands are tested for their interaction to NUCB1 in cells. […] MJN228 inhibited lipid probe binding to NUCB1 at concentrations as low as 10 μM, with near-maximal inhibition observed at ˜25 μM (FIG. 16A). […] The site of arachidonoyl probe (and MJN228) binding to NUCB1 was mapped in cells, which was accomplished by treating Neuro2A cells with the AEA-DA probe (50 μM) in the presence of DMSO or MJN228 (50 μM), followed by UV irradiation, CuAAC conjugation of AEA-DA-labeled proteins to isotopically light (DMSO-treated cells) and heavy (MJN228-treated cells) azide-biotin tags featuring a TEV protease-cleavable linker, and LCMS/MS analysis using a previously described platform, termed isoTOP-ABPP, for mapping probe-modified peptides in proteomes (Speers and Cravatt, 2005). A AEA-DA labeled peptide was identified for NUCB1 (aa 53-68) in DMSO-treated cells and the signals for this peptide were substantially (>5-fold) reduced in MJN228-treated cells (FIG. 15C). This AEA-DA labeling site was confirmed using recombinant, purified hNUCB1 and tandem MS analysis which narrowed down the site of probe modification to His67 (FIGS. 16B and 16C).

Assay [2] has as its target T2, AEA-DA-modified peptides in Neuro2a cells (Mus musculus, UniProt P84078).
T2 construct: endogenous in cells; host or cells: Neuro2a
Conditions: AEA-DA-modified peptide ARF1 P84078 39-60, SEQ ID NO 10; probe 100 μM, 12 replicates. Here is the method:
as §1, §2

For assay [3], the target named is T3, AEA-DA-modified peptides in Neuro2a cells (Mus musculus, UniProt Q8BVU5).
T3 construct: endogenous in cells; host or cells: Neuro2a
The settings on record: AEA-DA-modified peptide NUDT9 Q8BVU5 230-242, SEQ ID NO 73; probe 100 μM, 12 replicates. Here is the method:
as §1, §2

Assay [4] deals with T4, AEA-DA-modified peptides in Neuro2a cells (Mus musculus, UniProt Q925I1).
T4 construct: endogenous in cells; host or cells: Neuro2a
Conditions: AEA-DA-modified peptide ATAD3 Q92511 238-246, SEQ ID NO 16; probe 100 μM, 12 replicates. Here is the method: as §1, §2

Assay [5] addresses T5, AEA-DA-modified peptides in Neuro2a cells (Mus musculus, UniProt O08579).
T5 construct: endogenous in cells; host or cells: Neuro2a
Conditions: AEA-DA-modified peptide EMD O08579 176-205, SEQ ID NO 37; probe 100 μM, 12 replicates. How it is done:
as §1, §2

Assay [6] has as its target T6, AEA-DA-modified peptides in Neuro2a cells (Mus musculus, UniProt Q9Z0V8).
T6 construct: endogenous in cells; host or cells: Neuro2a
Conditions: probe 100 μM, 12 replicates. Here is the method: as §1, §2

Assay [7] has as its target T7, AEA-DA-modified peptides in Neuro2a cells (Mus musculus, UniProt P57780).
T7 construct: endogenous in cells; host or cells: Neuro2a
The settings on record: AEA-DA-modified peptide ACTN4 P57780 839-855, SEQ ID NO 4; probe 100 μM, 12 replicates. How it is done: as §1, §2

The target of assay [8] is T8, AEA-DA-modified peptides in Neuro2a cells (Mus musculus, UniProt P20029).
T8 construct: endogenous in cells; host or cells: Neuro2a
Conditions: probe 100 μM, 12 replicates. How it is done:
as §1, §2

In assay [9] the target is T9, AEA-DA-modified peptides in Neuro2a cells (Mus musculus, UniProt P61759).
T9 construct: endogenous in cells; host or cells: Neuro2a
Conditions: AEA-DA-modified peptide VBP1 P61759 153-178, SEQ ID NO 119; probe 100 μM, 12 replicates. How it is done: as §1, §2

The target of assay [10] is T10, AEA-DA-modified peptides in Neuro2a cells (Mus musculus, UniProt Q78ZA7).
T10 construct: endogenous in cells; host or cells: Neuro2a
The settings on record: AEA-DA-modified peptide NAP1L4 Q78ZA7 84-94, SEQ ID NO 66; probe 100 μM, 12 replicates. Here is the method: as §1, §2

The target in assay [11] is T11, AEA-DA-modified peptides in Neuro2a cells (Mus musculus, UniProt P59325).
T11 construct: endogenous in cells; host or cells: Neuro2a
The settings on record: AEA-DA-modified peptide EIF5 P59325 272-287, SEQ ID NO 36; probe 100 μM, 12 replicates. How it is done:
as §1, §2

T8 sequence (P20029 20-655): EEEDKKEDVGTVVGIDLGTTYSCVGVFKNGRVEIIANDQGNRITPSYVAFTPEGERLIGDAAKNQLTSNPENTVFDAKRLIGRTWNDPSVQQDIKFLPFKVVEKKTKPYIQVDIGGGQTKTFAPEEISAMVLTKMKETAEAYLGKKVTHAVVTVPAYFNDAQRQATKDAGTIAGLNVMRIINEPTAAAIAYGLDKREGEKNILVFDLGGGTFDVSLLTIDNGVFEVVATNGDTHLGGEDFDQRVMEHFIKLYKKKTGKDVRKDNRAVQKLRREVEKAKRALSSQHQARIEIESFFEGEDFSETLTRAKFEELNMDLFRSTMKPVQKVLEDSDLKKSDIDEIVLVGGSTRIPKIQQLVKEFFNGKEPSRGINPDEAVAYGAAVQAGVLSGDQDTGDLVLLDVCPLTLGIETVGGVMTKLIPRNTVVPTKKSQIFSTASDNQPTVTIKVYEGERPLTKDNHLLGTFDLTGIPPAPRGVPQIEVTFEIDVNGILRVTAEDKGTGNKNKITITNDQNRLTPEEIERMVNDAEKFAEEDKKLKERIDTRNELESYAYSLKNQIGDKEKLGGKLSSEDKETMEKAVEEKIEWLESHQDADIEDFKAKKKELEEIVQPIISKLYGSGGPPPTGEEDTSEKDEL
T6 sequence (Q9Z0V8 whole entry): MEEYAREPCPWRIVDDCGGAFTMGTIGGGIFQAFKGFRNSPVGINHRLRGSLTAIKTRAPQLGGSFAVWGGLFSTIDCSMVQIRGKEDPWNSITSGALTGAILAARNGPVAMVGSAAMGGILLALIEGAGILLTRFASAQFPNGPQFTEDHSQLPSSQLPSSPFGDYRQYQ
T11 sequence (P59325 whole entry): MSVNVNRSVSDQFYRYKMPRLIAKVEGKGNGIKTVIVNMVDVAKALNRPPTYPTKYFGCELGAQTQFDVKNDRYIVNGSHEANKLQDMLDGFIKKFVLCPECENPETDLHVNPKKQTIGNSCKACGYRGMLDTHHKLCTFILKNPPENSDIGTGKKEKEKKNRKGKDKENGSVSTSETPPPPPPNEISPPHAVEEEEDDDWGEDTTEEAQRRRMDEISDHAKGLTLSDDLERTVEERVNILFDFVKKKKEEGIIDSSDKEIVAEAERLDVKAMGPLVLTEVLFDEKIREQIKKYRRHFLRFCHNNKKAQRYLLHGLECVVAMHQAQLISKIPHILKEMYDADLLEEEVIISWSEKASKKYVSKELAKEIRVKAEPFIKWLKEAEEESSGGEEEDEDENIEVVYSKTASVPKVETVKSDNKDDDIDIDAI
T5 sequence (O08579 whole entry): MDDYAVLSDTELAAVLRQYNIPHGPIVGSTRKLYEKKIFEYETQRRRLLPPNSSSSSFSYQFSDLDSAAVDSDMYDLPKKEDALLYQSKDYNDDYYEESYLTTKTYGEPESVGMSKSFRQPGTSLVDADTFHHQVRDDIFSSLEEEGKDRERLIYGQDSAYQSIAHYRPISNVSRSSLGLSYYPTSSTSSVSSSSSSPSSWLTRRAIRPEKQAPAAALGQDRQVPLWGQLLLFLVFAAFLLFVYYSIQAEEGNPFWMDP
T10 sequence (Q78ZA7 whole entry): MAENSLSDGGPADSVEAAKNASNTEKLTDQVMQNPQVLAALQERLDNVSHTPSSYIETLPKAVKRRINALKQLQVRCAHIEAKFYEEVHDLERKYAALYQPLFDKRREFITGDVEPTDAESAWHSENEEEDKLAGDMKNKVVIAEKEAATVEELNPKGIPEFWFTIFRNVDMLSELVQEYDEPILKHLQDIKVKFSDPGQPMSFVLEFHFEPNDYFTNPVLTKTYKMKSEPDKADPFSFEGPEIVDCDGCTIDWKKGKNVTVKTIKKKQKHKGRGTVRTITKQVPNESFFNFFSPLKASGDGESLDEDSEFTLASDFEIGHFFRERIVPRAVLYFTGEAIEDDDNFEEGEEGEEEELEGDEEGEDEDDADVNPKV
T2 sequence (P84078 whole entry): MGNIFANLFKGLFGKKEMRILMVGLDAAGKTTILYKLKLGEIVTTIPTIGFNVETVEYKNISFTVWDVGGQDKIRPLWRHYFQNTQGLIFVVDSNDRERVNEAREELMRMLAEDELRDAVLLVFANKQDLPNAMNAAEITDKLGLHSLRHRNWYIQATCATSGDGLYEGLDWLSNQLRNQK
T1 sequence (P62259 whole entry): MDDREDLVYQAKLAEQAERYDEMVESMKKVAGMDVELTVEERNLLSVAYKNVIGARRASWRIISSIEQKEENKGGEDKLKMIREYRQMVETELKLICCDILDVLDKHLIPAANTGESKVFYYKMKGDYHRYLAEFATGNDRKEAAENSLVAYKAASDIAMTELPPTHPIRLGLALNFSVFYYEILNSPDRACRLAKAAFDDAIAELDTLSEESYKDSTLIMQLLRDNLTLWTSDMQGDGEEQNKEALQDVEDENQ
T4 sequence (Q925I1 whole entry): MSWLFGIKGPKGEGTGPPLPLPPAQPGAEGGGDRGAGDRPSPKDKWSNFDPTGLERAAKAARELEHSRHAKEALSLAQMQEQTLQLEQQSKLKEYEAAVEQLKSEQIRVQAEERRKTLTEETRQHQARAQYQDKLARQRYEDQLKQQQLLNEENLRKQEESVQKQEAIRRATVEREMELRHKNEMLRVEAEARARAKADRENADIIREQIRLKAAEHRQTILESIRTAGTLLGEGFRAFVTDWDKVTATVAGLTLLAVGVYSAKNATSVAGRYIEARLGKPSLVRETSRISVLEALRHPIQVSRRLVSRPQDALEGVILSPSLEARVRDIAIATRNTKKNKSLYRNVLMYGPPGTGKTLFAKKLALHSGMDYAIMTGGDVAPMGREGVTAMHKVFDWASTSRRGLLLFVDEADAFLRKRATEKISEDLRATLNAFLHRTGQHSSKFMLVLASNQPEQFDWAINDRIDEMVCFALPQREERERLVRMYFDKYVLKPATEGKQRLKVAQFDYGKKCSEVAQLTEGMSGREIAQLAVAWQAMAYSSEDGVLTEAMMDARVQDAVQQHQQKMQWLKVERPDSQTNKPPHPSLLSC
T9 sequence (P61759 whole entry): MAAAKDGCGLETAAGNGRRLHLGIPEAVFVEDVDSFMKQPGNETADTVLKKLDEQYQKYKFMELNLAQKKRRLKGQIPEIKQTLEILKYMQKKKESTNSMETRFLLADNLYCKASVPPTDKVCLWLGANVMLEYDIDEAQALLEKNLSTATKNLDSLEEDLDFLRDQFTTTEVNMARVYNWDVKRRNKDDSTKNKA
T7 sequence (P57780 whole entry): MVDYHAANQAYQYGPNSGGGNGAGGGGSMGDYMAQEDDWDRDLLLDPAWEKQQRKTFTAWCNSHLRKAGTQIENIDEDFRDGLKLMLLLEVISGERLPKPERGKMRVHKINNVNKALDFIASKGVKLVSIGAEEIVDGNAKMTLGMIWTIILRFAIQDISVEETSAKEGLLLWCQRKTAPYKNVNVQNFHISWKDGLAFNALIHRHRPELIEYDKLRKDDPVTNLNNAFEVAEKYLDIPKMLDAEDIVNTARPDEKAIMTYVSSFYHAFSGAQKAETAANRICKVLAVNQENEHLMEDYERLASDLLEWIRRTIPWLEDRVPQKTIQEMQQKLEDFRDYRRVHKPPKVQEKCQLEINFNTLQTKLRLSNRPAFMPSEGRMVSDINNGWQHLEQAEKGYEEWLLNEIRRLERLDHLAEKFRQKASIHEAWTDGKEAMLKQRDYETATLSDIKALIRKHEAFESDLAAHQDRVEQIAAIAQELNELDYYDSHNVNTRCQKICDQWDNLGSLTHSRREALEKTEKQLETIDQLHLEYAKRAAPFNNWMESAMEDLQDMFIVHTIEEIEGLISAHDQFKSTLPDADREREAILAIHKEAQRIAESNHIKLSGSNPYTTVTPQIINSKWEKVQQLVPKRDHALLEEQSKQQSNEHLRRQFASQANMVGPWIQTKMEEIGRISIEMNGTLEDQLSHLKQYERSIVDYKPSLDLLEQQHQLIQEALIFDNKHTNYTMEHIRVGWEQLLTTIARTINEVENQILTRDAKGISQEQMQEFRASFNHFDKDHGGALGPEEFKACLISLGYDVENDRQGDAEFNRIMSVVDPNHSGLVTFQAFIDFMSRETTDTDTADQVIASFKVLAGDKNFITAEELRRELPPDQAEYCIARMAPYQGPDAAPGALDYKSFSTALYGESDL
T3 sequence (Q8BVU5 47-350): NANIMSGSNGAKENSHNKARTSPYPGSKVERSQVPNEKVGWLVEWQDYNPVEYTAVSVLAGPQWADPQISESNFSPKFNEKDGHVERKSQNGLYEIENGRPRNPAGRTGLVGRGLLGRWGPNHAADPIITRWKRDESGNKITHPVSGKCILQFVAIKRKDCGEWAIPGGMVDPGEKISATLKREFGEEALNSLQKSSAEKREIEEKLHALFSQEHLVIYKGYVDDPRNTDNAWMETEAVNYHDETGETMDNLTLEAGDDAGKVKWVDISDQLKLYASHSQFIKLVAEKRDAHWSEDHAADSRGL

As to `C#CCCCC1(CC/C=C\C/C=C\C/C=C\CCCC(=O)NCCO)N=N1` [AEA-DA, (5Z,8Z,11Z)-N-(2-hydroxyethyl)-14-(3-(pent-4-yn-1-yl)-3H-diazirin-3-yl)tetradeca-5,8,11-trienamide], the Times observed amounted to 8 in assay [1]; 9 in [2]; 7 in assay [3]; 3 in assay [4]; 2 in assay [5]; 9 in assay [6] (AEA-DA-modified peptide TIMM17A Q9Z0V8 13-36, SEQ ID NO 111). The Times observed is reported as 4 in [6] (AEA-DA-modified peptide TIMM17A Q9Z0V8 85-107, SEQ ID NO 112); 2 in [7]; 8 in assay [8] (AEA-DA-modified peptide HSPA5 P20029 466-476, SEQ ID NO 52); 4 in assay [8] (AEA-DA-modified peptide HSPA5 P20029 635-656, SEQ ID NO 53); 2 in [9]; 3 in assay [10]. In [11], the Times observed came out at 12.

Source of the values: patent US10168342B2, “Lipid probes and uses thereof” (THE SCRIPPS RESEARCH INSTITUTE, priority 2015, dated 2019).
